Test results reported in the supplement of paper PMC10307832.

Assays:
Test in all cases: relative viability (nuclei count vs DMSO), 5 days (fraction); higher = more cells survive
[1] = test system: NCI-H1666
How it was run: (§1)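 A single step with final 0.05% Triton X-100, 1% formaldehyde and 1 ug/ml Hoechst fixed the cells and stained nuclei 5 days after treatment. Lung cancer cell lines in 1536-well plates had been treated by pin tool the day after seeding with one drug alone or a fixed anchor-drug dose plus five library-drug doses (not always all listed) in √10 steps, and nuclei were counted on 4× images. Relative viability is the ratio of nuclei in treated wells to nuclei in vehicle wells, taken as the median of duplicate plates.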

[2] = test system: NCI-H1944
How it was run: as §1

[3] = test system: NCI-H1975
How it was run: as §1

[4] = test system: NCI-H2087
How it was run: as §1

[5] = test system: NCI-H358
How it was run: as §1

[6] = test system: NCI-H596
How it was run: as §1

[7] = test system: NCI-H650
How it was run: as §1

[8] = test system: NCI-H661
How it was run: as §1

[9] = test system: NCI-H838
How it was run: as §1

[10] = test system: PC-3 [JPC-3]
How it was run: as §1

[11] = test system: SK-MES-1
How it was run: as §1

With `O=c1cc(-c2cccc3c2Sc2ccccc2S3)oc(N2CCOCC2)c1` + C[C@@H](Oc1cc(-c2cnn(C3CCNCC3)c2)cnc1N)c1c(Cl)ccc(F)c1Cl [Crizotinib] (partner 1 µM) as the molecule, how does the relative viability ([1]; first compound 0.8 µM) read?
The relative viability was 0.922.

And the relative viability ([1]; first compound 2.53 µM)?
Its relative viability is 0.916.

What about the relative viability ([1]; first compound 8 µM) of the same molecule?
Its relative viability is 0.857.

What about the relative viability ([2]; first compound 0.08 µM) of the same molecule?
The relative viability was 1.12.

And the relative viability ([2]; first compound 0.253 µM)?
Its relative viability is 1.23.

What about the relative viability ([2]; first compound 0.8 µM) of the same molecule?
Its relative viability is 1.17.

What about the relative viability ([2]; first compound 8 µM) of the same molecule?
Its relative viability is 1.08.

And the relative viability ([3]; first compound 0.08 µM)?
The relative viability was 1.01.

What about the relative viability ([3]; first compound 0.253 µM) of the same molecule?
Its relative viability is 1.02.

And the relative viability ([3]; first compound 0.8 µM)?
The relative viability was 0.922.

What about the relative viability ([3]; first compound 2.53 µM) of the same molecule?
Its relative viability is 0.837.

What about the relative viability ([3]; first compound 8 µM) of the same molecule?
The relative viability was 0.98.

What about the relative viability ([4]; first compound 0.08 µM) of the same molecule?
The relative viability was 0.982.

What about the relative viability ([4]; first compound 0.253 µM) of the same molecule?
The relative viability was 0.966.

And the relative viability ([4]; first compound 0.8 µM)?
Its relative viability is 1.12.

What about the relative viability ([4]; first compound 2.53 µM) of the same molecule?
Its relative viability is 0.927.

What about the relative viability ([4]; first compound 8 µM) of the same molecule?
Its relative viability is 1.01.

What about the relative viability ([5]; first compound 0.08 µM) of the same molecule?
The relative viability was 0.629.

What about the relative viability ([5]; first compound 0.253 µM) of the same molecule?
Its relative viability is 0.634.

What about the relative viability ([5]; first compound 0.8 µM) of the same molecule?
The relative viability was 0.657.

And the relative viability ([5]; first compound 2.53 µM)?
Its relative viability is 0.466.

What about the relative viability ([5]; first compound 8 µM) of the same molecule?
The relative viability was 0.574.

And the relative viability ([6]; first compound 0.08 µM)?
Its relative viability is 0.96.

And the relative viability ([6]; first compound 0.253 µM)?
The relative viability was 1.08.

And the relative viability ([6]; first compound 0.8 µM)?
Its relative viability is 0.982.

And the relative viability ([6]; first compound 2.53 µM)?
The relative viability was 0.891.

What about the relative viability ([6]; first compound 8 µM) of the same molecule?
The relative viability was 0.806.

What about the relative viability ([7]; first compound 0.08 µM) of the same molecule?
Its relative viability is 0.702.

And the relative viability ([7]; first compound 0.253 µM)?
The relative viability was 0.606.

And the relative viability ([7]; first compound 0.8 µM)?
Its relative viability is 0.74.

What about the relative viability ([7]; first compound 2.53 µM) of the same molecule?
Its relative viability is 0.58.

And the relative viability ([7]; first compound 8 µM)?
The relative viability was 0.694.

What about the relative viability ([8]; first compound 0.08 µM) of the same molecule?
Its relative viability is 1.15.

What about the relative viability ([8]; first compound 0.253 µM) of the same molecule?
The relative viability was 1.04.

And the relative viability ([8]; first compound 0.8 µM)?
Its relative viability is 1.13.

What about the relative viability ([8]; first compound 2.53 µM) of the same molecule?
The relative viability was 0.939.

And the relative viability ([8]; first compound 8 µM)?
The relative viability was 0.958.

And the relative viability ([9]; first compound 0.08 µM)?
The relative viability was 0.883.

What about the relative viability ([9]; first compound 0.253 µM) of the same molecule?
The relative viability was 0.988.

What about the relative viability ([9]; first compound 0.8 µM) of the same molecule?
Its relative viability is 0.82.

What about the relative viability ([9]; first compound 2.53 µM) of the same molecule?
The relative viability was 0.794.

And the relative viability ([9]; first compound 8 µM)?
Its relative viability is 0.816.

And the relative viability ([10]; first compound 0.08 µM)?
Its relative viability is 0.983.

And the relative viability ([10]; first compound 0.253 µM)?
The relative viability was 1.01.

What about the relative viability ([10]; first compound 0.8 µM) of the same molecule?
Its relative viability is 1.03.

What about the relative viability ([10]; first compound 2.53 µM) of the same molecule?
Its relative viability is 0.971.

What about the relative viability ([10]; first compound 8 µM) of the same molecule?
The relative viability was 1.02.

And the relative viability ([11]; first compound 0.08 µM)?
Its relative viability is 1.03.

And the relative viability ([11]; first compound 0.253 µM)?
Its relative viability is 0.949.

What about the relative viability ([11]; first compound 0.8 µM) of the same molecule?
The relative viability was 0.937.

And the relative viability ([11]; first compound 2.53 µM)?
The relative viability was 0.925.

What about the relative viability ([11]; first compound 8 µM) of the same molecule?
The relative viability was 1.02.
